Assay results as given in paper PMC3068151 (PLoS ONE, 2011).

What was measured:
EphA2-ephrinA1 binding = biological target: T1, EphA2-ephrinA1 binding (Mus musculus, UniProt Q03145); experiment: ELISA EphA2-ephrinA1 binding (displacement and saturation); conditions: for decrease of EphA2-ephrinA1 binding: bile acids, repeat of the 200 µM experiment
T1 construct: we immobilized EphA2-Fc- ectodomain on proper ELISA plates; purchased R&D systems 639-A2 (EphA2-Fc); BT602 (biotinylated ephrinA1-Fc)
Method: Our chemical collection (Table S1) was stocked in a 20 mM dimethyl sulfoxide (DMSO) solution and we performed binding assay at a concentration of 200 µM. Only compounds displacing more than 40% ephrinA1 from EphA2 receptor were considered for a full concentration-binding curve. […] The day after wells were washed three times with washing buffer (PBS +0.05% tween20, pH 7.5) and blocked with 300 µl of blocking solution (PBS +0.5% BSA) for 1 hour at 37°C. Compounds were added to the wells at proper concentration in 1% dimethyl sulfoxide (DMSO) and incubated at 37°C for 1 hour. Biotinylated ephrinA1-Fc (R&D BT602) was added at 37°C for 4 hours at 30 ng/ml in displacement assays or in a range from 1 to 2000 ng/ml in saturation studies. […] The reaction was stopped with 3N HCl 100 µl/well and the absorbance was measured using an ELISA plate reader (Sunrise, TECAN, Switzerland) at 450 nm.
The IC50 value was determined using one-site competition non-linear regression and Kd values of the curves with or without antagonists were calculated using one-binding site non-linear regression analysis with Prism software (GraphPad Software Inc.). The Ki was obtained using Schild plot where Log[DR-1] is a function of the negative Log10 of the inhibitor concentration. The Hill's coefficient was calculated using linear fitting to evaluate whether the inhibition was competitive or uncompetitive.
To identify compounds interfering with EphA2-ephrinA1 binding we immobilized EphA2-Fc- ectodomain on proper ELISA plates and binding of biotinylated-ephrin-A1-Fc was detected using the colorimetric reaction developed by streptavidine-HRP and tetramethylbenzidine.

EphA2 [1] = biological target: T2, EphA2 (Homo sapiens, UniProt P29317); experiment: Phosphorylated-EphA2 sandwich ELISA in PC3 cell lysates; format: cell-based; parameters: their known ability to naturally express EphA2; endogenous in cells; host or cells: PC3 (A5); conditions: PC3 cells, 100 µM
Method: (§1) Cells were seeded in 12-well plates at concentration of 10^5cells/ml in complete medium until they reached ∼40% confluence and serum starved overnight. The day after cells were treated with compounds under study, vehicle or standard drug, stimulated with the proper agonist, rinsed with sterile PBS and solubilized in lysis buffer. The lysates were resuspended and rocked at 4°C for 30 minutes and then centrifuged at 14000 xg for 5 minutes. The protein content of supernatant was measured with BCA protein assay kit (Thermo scientific), standardized to 200 µg/ml and transferred into a clean test tube ready to be used.
(§2) EphA2-, EphB4- and EGFR-phosphorylation were measured in cell lysates using DuoSet®IC Sandwich ELISA (RnD Systems, #DYC4056, #DYC4057 and #DYC1095, respectively) following manufacturer's protocol. […] The day after wells were washed and blocked for 1 hour at room temperature. After that, wells were washed and 100 µl/well of lysates were added at room temperature for 2 hours; wells were washed and incubated with Detection Antibody at room temperature for 2 hours.
(§3) EphB4 phosphorylation was stimulated with 3 µg/ml ephrinB2-Fc, preclustered with 0.3 µg/ml IgG Fc fragment on T47D cells (G, H, I). […] Phospho-EphA2/B4 levels are relative to ephrinA1/B2-Fc+DMSO. Data are the means of at least three independent experiment ± st. err. One-way ANOVA followed by Dunnet's post test was performed comparing Fc to all other columns for Fig A, D, G and ephrinA1-Fc+DMSO to all other columns for Fig B,C,E, F, H, I. *, p<0.05, **, p<0.01.

EphA2 [2] = biological target: T2, EphA2; experiment: Phosphorylated-EphA2 sandwich ELISA in HT29 cell lysates; format: cell-based; parameters: their known ability to naturally express EphA2; endogenous in cells; host or cells: HT29 (A6); conditions: HT29 cells, 100 µM
Method: as §1, §2, §3

T2 sequence (P29317 24-976): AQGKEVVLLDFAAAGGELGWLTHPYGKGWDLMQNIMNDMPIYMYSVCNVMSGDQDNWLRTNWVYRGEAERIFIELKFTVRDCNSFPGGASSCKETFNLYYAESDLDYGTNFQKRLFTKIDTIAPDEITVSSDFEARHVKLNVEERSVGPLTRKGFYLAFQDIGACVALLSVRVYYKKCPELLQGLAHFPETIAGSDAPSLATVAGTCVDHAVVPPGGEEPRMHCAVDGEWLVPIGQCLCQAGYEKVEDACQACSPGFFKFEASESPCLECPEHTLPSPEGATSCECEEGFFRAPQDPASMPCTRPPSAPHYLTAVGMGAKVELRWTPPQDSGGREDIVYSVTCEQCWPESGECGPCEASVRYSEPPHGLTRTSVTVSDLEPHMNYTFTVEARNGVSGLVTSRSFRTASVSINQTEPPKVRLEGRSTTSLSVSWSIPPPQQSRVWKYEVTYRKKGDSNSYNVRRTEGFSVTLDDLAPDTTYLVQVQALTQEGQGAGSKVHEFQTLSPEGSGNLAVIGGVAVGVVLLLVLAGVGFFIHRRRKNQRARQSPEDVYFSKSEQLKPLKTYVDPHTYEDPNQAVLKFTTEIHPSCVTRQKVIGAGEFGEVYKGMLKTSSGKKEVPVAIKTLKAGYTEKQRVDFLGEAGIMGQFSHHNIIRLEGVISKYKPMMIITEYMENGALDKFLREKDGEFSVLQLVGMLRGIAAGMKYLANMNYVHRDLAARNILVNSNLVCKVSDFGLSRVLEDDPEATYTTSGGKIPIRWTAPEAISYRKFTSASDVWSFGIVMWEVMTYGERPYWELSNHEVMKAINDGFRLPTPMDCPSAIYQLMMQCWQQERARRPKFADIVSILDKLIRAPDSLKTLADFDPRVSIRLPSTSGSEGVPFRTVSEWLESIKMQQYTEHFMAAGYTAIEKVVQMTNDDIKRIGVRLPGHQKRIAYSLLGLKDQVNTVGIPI
T1 sequence (Q03145 26-538 limits assumed): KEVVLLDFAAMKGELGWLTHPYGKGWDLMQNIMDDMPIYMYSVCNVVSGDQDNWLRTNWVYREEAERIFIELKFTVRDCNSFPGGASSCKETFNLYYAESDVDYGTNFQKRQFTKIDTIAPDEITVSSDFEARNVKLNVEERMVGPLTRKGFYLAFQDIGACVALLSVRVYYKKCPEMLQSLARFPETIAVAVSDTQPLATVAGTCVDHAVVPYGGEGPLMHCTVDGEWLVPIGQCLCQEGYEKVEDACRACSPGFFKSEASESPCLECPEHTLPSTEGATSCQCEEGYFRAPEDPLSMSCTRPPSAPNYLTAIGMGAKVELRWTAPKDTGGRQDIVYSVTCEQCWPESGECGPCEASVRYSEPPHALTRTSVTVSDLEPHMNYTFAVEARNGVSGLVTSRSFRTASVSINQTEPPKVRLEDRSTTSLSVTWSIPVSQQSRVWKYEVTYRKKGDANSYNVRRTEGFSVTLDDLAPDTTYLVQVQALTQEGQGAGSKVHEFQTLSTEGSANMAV

Molecule | decrease of EphA2-ephrinA1 binding (EphA2-ephrinA1 binding) | effect on Eph kinase phosphorylation as agonist or antagonist (EphA2 [1]) | effect on Eph kinase phosphorylation as agonist or antagonist (EphA2 [2]) | Ki of EphA2-biotinylated-ephrin-A1 binding inhibition (EphA2-ephrinA1 binding; assay validation, Figure S1) [µg/mL]
C[C@H](CCC(=O)O)[C@H]1CC[C@H]2[C@@H]3[C@H](O)C[C@@H]4C[C@H](O)CC[C@]4(C)[C@H]3C[C@H](O)[C@]12C [CA, cholic] | did not displaced | inactive | inactive | –
ephrinA1-Fc: recombinant ephrinA1-Fc protein, ligand of the EphA2-Fc receptor (protein, Ectodomain only, with the C-terminal IgG Fc carrier omitted; The Fc chimera is a disulfide-linked dimer; Limits follow the mature ectodomain without the signal peptide and GPI propeptide, by supplier) DRHIVFWNSSNPKFREEDYTVHVQLNDYLDIICPHYEDDSVADAAMERYTLYMVEHQEYVACQPQSKDQVRWNCNRPSAKHGPEKLSEKFQRFTPFILGKEFKEGHSYYYISKPIYHQESQCLKLKVTVNGKITHNPQAHVNPQEKRLQADDPEVQVLHSIGYS | – | – | – | 0.102

Continued, values first:

decrease of EphA2-ephrinA1 binding (EphA2-ephrinA1 binding) | effect on Eph kinase phosphorylation as agonist or antagonist (EphA2 [1]) | effect on Eph kinase phosphorylation as agonist or antagonist (EphA2 [2]) | Ki of EphA2-biotinylated-ephrin-A1 binding inhibition (EphA2-ephrinA1 binding; assay validation, Figure S1) [µg/mL] | Molecule
did not displaced | inactive | inactive | – | C[C@H](CCC(=O)O)[C@H]1CC[C@H]2[C@@H]3[C@H](O)C[C@@H]4C[C@H](O)CC[C@]4(C)[C@H]3CC[C@]12C [CDCA, chenodeoxycholic]
did not displaced | inactive | inactive | – | C[C@H](CCC(=O)O)[C@H]1CC[C@H]2[C@@H]3CC[C@@H]4C[C@H](O)CC[C@]4(C)[C@H]3C[C@H](O)[C@]12C [DCA, deoxycholic]
